Laboratory results published in patent US20160075753A1, “MODULATION OF REGULATORY T CELL FUNCTION VIA PROTEIN KINASE C-eta” (LA JOLLA INSTITUTE FOR ALLERGY AND IMMUNOLOGY, priority 2013, published 2016).

Tested on: interaction between CTLA-4 and PKCη
Test: CTLA-4 immunoprecipitation and immunoblotting for PKCη in cotransfected JTAg cells
Assay type: cell-based, human
Conditions: JTAg cells cotransfected with WT Ctla4 and Xpress-tagged WT PKCη; PP2 10 μM for 30 min before anti-CD3 mAbs + B7-Fc stimulation for 5 min; FIG. 12
Procedure: WT Ctla4 were cotransfected with Xpress-tagged WT PKCη into JTAg cells. Cells were treated with vehicle (DMSO), PP2 (10 μM) or PP3 (10 μM) for 30 min prior to stimulation with anti-CD3 mAbs+B7-Fc recombinant protein for 5 min Cell lysates were immunoprecipitated with CTLA-4 mAb and then immunoblotted with the indicated Abs.
Simian virus 40 large T antigen-transfected human leukemic Jurkat T cells (JTAg) and MCC-specific hybridoma T cells were described previously. JTAg cells in logarithmic growth phase were transfected with plasmid DNAs by electroporation and incubated for 48 hours. Transfected cells were stimulated with OKT3 mAb and recombinant B7-Fc in the presence of cross-linking Ab for 5 min. Cell lysis in 1% digitonin lysis buffer (50 mM Tris-HCl, 50 mM NaCl, 5 mM EDTA), immunoprecipitation and Western blotting were carried out as previously described.
To map the important motif within the cytoplasmic tail of CTLA-4 that is used in the interaction with PKCη, the membrane proximal positively charged motif (K188, 191KKR193), the proline-rich motif (P205, 206, 209), and tyrosine residues (Y201 or Y218) were mutated, and the corresponding mutants examined for their ability to associate with PKCη. […] This positively charged motif is highly conserved throughout evolution from fish to primates (FIG. 10).

Question: With `CC(C)(C)n1nc(-c2ccc(Cl)cc2)c2c(N)ncnc21` [PP2] as the molecule, how does the “interaction between CTLA-4 and PKCη (co-immunoprecipitation)” value read?
Answer: The value was “not affected”.
